One may read the IC50 as the midpoint of a concentration-inhibition curve. Lower therefore signals greater potency in that assay.

Molecules are shown by their SMILES.

The target of the assay is T1, hMAGL (Homo sapiens, UniProt Q99685).
T1 sequence (Q99685 1-303): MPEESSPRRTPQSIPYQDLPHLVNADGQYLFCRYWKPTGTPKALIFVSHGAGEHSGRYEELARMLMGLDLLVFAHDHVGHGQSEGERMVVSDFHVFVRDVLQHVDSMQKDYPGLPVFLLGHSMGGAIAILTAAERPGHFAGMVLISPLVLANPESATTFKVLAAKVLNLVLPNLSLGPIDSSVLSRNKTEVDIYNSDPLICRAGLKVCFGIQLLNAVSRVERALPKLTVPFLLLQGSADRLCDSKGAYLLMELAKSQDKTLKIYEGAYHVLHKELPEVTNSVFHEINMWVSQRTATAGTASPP
Put plainly: 2-AG assay: MAGL inhibition, hydrolysis of 2-arachidonoylglycerol to arachidonic acid followed by mass spectrometry. Format: biochemical. As to the method:
Compounds of formula (I) were profiled for MAGL inhibitory activity by determining the enzymatic activity by following the hydrolysis of the natural substrate 2-arachidonoylglycerol (2-AG) resulting in arachidonic acid, which can be followed by mass spectrometry. This assay is hereinafter abbreviated “2-AG assay”. The 2-AG assay was carried out in 384 well polypropylene assay plates. […] Compound dilutions were added to MAGL protein in assay buffer (50 mM TRIS, 1 mM EDTA, 0.01% (v/v) Tween-20, 2.5% (v/v) DMSO). After shaking, the plate was incubated for 15 min at RT. To start the reaction, 2-arachidonoylglycerol in assay buffer was added. The final concentrations in the assay was […] for MAGL protein and 8 μM 2-arachidonoylglyerol. After shaking and 30 min incubation at RT, the reaction was quenched by the addition of two assay volumes of acetonitrile containing 4 μM of d8-arachidonic acid. The amount of arachidonic acid formed was traced by an online SPE system (Agilent Rapidfire) coupled to a triple quadrupole mass spectrometer. A C18 SPE cartridge (Agilent G9205A) was used in an acetonitrile/water liquid setup. […] The activity of the compounds was calculated based on the ratio of intensities [arachidonic acid/d8-arachidonic acid].

Take `CC(C)(C)c1conc1CN1CC2(C1)CN(C(=O)N1CC3(CC(n4cnc(C5CC5)n4)C3)C1)C2` [Example 256, [6-[(4-tert-butylisoxazol-3-yl)methyl]-2,6-diazaspiro[3.3]heptan-2-yl]-[6-(3-cyclopropyl-1,2,4-triazol-1-yl)-2-azaspiro[3.3]heptan-2-yl]methanone]: the half-maximal inhibitory concentration (IC50) was determined as 2.79 nM.

Turning to `O=C(N1CC2(CC(Cn3ncnc3C(F)(F)F)C2)C1)N1CC2(CC(n3cnc(C4(O)CC4)n3)C2)C1` [Example 325, [6-[3-(1-hydroxycyclopropyl)-1,2,4-triazol-1-yl]-2-azaspiro[3.3]heptan-2-yl]-[6-[[5-(trifluoromethyl)-1,2,4-triazol-1-yl]methyl]-2-azaspiro[3.3]heptan-2-yl]methanone], the half-inhibitory concentration (IC50) is 23.1 nM. Compared with the last compound, the IC50 is about 8.3-fold higher. The value for `Cn1c(CN2CC3(C2)CN(C(=O)N2CC4(CC(n5cnc(C(F)(F)F)n5)C4)C2)C3)nnc1C(F)(F)F` [Example 314, [6-[[4-methyl-5-(trifluoromethyl)-1,2,4-triazol-3-yl]methyl]-2,6-diazaspiro[3.3]heptan-2-yl]-[6-[3-(trifluoromethyl)-1,2,4-triazol-1-yl]-2-azaspiro[3.3]heptan-2-yl]methanone] was 123 nM.

`Cc1cc(C(F)(F)F)n(CC2CC3(C2)CN(C(=O)N2CC4(CC(n5cnc(C6CC6)n5)C4)C2)C3)n1` [Example 72, [6-(3-cyclopropyl-1,2,4-triazol-1-yl)-2-azaspiro[3.3]heptan-2-yl]-[6-[[3-methyl-5-(trifluoromethyl)pyrazol-1-yl]methyl]-2-azaspiro[3.3]heptan-2-yl]methanone] registered an IC50 of 3.09 nM. On to `O=C(N1CC2(CC(Cc3cnn(CC(F)(F)F)c3)C2)C1)N1CC2(CC(c3cc(C4CC4)n[nH]3)C2)C1` [Example 290, [6-(3-cyclopropyl-1H-pyrazol-5-yl)-2-azaspiro[3.3]heptan-2-yl]-[6-[[1-(2,2,2-trifluoroethyl)pyrazol-4-yl]methyl]-2-azaspiro[3.3]heptan-2-yl]methanone], for which the 50% inhibitory concentration (IC50) stood at 0.86 nM. Against the preceding compound, the IC50 is about 3.6-fold lower.

For the compound `O=C(N1CC2(CC(n3cnc(C(F)(F)F)n3)C2)C1)N1CC2(CN(Cc3ccn(CC(F)(F)F)n3)C2)C1` [Example 99, [6-[[1-(2,2,2-trifluoroethyl)pyrazol-3-yl]methyl]-2,6-diazaspiro[3.3]heptan-2-yl]-[6-[3-(trifluoromethyl)-1,2,4-triazol-1-yl]-2-azaspiro[3.3]heptan-2-yl]methanone], the IC50 was determined as 386 nM. Turning to `O=C(N1CC2(CC(c3cc(C4CC4)n[nH]3)C2)C1)N1CC2(CN(Cc3ccnn3C(F)(F)F)C2)C1` [Example 224, [6-(3-cyclopropyl-1H-pyrazol-5-yl)-2-azaspiro[3.3]heptan-2-yl]-[6-[[2-(trifluoromethyl)pyrazol-3-yl]methyl]-2,6-diazaspiro[3.3]heptan-2-yl]methanone], the midpoint of inhibition, the IC50, lay at 20.2 nM.

`O=C(N1CC2(CC(n3cnc(C4CC4)n3)C2)C1)N1CC2(CN(Cc3cc(C4CCC4)[nH]n3)C2)C1` [Example 274, [6-[(5-cyclobutyl-1H-pyrazol-3-yl)methyl]-2,6-diazaspiro[3.3]heptan-2-yl]-[6-(3-cyclopropyl-1,2,4-triazol-1-yl)-2-azaspiro[3.3]heptan-2-yl]methanone] yielded an IC50 of 5.29 nM. As for `O=C(N1CC2(CC(Cc3n[nH]cc3C(F)(F)F)C2)C1)N1CC2(CC(n3cnc(C(F)F)n3)C2)C1` [Example 344, [6-[3-(difluoromethyl)-1,2,4-triazol-1-yl]-2-azaspiro[3.3]heptan-2-yl]-[6-[[4-(trifluoromethyl)-1H-pyrazol-3-yl]methyl]-2-azaspiro[3.3]heptan-2-yl]methanone], the figure is 2.26 nM; as for `Cn1cc(CC2CC3(C2)CN(C(=O)N2CC4(CC(n5cnc(C6(O)CC6)n5)C4)C2)C3)c(C(F)(F)F)n1` [Example 6, [6-[3-(1-hydroxycyclopropyl)-1,2,4-triazol-1-yl]-2-azaspiro[3.3]heptan-2-yl]-[6-[[1-methyl-3-(trifluoromethyl)pyrazol-4-yl]methyl]-2-azaspiro[3.3]heptan-2-yl]methanone], 4.93 nM.

Compound `O=C(N1CC2(CC(n3cnc(C4CC4)n3)C2)C1)N1CC2(CN(Cc3nc(C(F)(F)F)cs3)C2)C1` [Example 53, [6-(3-cyclopropyl-1,2,4-triazol-1-yl)-2-azaspiro[3.3]heptan-2-yl]-[6-[[4-(trifluoromethyl)thiazol-2-yl]methyl]-2,6-diazaspiro[3.3]heptan-2-yl]methanone] showed a half-inhibitory concentration (IC50) of 2.62 nM. The value for `O=C(N1CC2(CCN(Cc3nc(C(F)(F)F)cs3)CC2)C1)N1CC2(CC(n3cnc(C4CC4)n3)C2)C1` [Example 177, [6-(3-cyclopropyl-1,2,4-triazol-1-yl)-2-azaspiro[3.3]heptan-2-yl]-[7-[[4-(trifluoromethyl)thiazol-2-yl]methyl]-2,7-diazaspiro[3.5]nonan-2-yl]methanone] was 9.83 nM. As for `Cc1c(CN2CC3(C2)CN(C(=O)N2CC4(CC(n5cnc(C6CC6)n5)C4)C2)C3)cnn1C` [Example 309, [6-(3-cyclopropyl-1,2,4-triazol-1-yl)-2-azaspiro[3.3]heptan-2-yl]-[6-[(1,5-dimethylpyrazol-4-yl)methyl]-2,6-diazaspiro[3.3]heptan-2-yl]methanone], the figure is 183 nM. In the case of `O=C(N1CC2(CC(n3cnc(C4CC4)n3)C2)C1)N1CC2(CN(Cc3ccn(CC(F)(F)F)n3)C2)C1` [Example 100, [6-(3-cyclopropyl-1,2,4-triazol-1-yl)-2-azaspiro[3.3]heptan-2-yl]-[6-[[1-(2,2,2-trifluoroethyl)pyrazol-3-yl]methyl]-2,6-diazaspiro[3.3]heptan-2-yl]methanone], the concentration for half-maximal inhibition (IC50) was determined as 92.6 nM. `O=C(N1CC2(CC(Cc3cnn(CC(F)(F)F)n3)C2)C1)N1CC2(CC(n3cnc(C4CC4)n3)C2)C1` [Example 350, [6-(3-cyclopropyl-1,2,4-triazol-1-yl)-2-azaspiro[3.3]heptan-2-yl]-[6-[[2-(2,2,2-trifluoroethyl)triazol-4-yl]methyl]-2-azaspiro[3.3]heptan-2-yl]methanone]: half-maximal inhibition (IC50) required 0.92 nM. This IC50 lies about 100-fold lower than the previous one. As for `O=C(N1CC2(CC(n3cnc(C4(O)CC4)n3)C2)C1)N1CC2(CN(Cc3nc(C4CC4)ns3)C2)C1` [Example 45, [6-[(3-cyclopropyl-1,2,4-thiadiazol-5-yl)methyl]-2,6-diazaspiro[3.3]heptan-2-yl]-[6-[3-(1-hydroxycyclopropyl)-1,2,4-triazol-1-yl]-2-azaspiro[3.3]heptan-2-yl]methanone], the figure is 118 nM. As for `O=C(N1CC2(CC(n3cnc(C(F)(F)F)n3)C2)C1)N1CC2(CN(Cc3cnn(CC(F)(F)F)c3)C2)C1` [Example 109, [6-[[1-(2,2,2-trifluoroethyl)pyrazol-4-yl]methyl]-2,6-diazaspiro[3.3]heptan-2-yl]-[6-[3-(trifluoromethyl)-1,2,4-triazol-1-yl]-2-azaspiro[3.3]heptan-2-yl]methanone], the figure is 1380 nM; as for `O=C(N1CC2(CC(Cn3nccc3C3CC3)C2)C1)N1CC2(CC(n3cnc(C4CC4)n3)C2)C1` [Example 355, [6-[(5-cyclopropylpyrazol-1-yl)methyl]-2-azaspiro[3.3]heptan-2-yl]-[6-(3-cyclopropyl-1,2,4-triazol-1-yl)-2-azaspiro[3.3]heptan-2-yl]methanone], 0.11 nM.

The values above are taken from patent publication US20260374756A1, “HETEROCYCLIC COMPOUNDS AS INHIBITORS OF MONOACYLGLYCEROL LIPASE (MAGL)” (Hoffmann-La Roche Inc., priority 2022, published 2026).
